From patent US12577217B2, “15-PGDH inhibitor” (KYORIN Pharmaceutical Co., Ltd., priority 2019, dated 2026)

Target: T1, recombinant human 15-PGDH (Homo sapiens, UniProt P15428)
T1 construct: purchased R&D Systems
T1 sequence (P15428 1-266): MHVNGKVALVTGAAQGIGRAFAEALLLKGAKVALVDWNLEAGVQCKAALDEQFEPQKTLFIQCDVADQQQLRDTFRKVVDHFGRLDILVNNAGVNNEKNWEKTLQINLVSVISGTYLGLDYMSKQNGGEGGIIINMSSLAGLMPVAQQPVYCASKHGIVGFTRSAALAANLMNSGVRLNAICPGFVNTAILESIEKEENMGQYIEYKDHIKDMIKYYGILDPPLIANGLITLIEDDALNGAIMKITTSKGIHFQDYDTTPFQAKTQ
Experiment: 15-PGDH enzyme inhibition test
Format: biochemical
Conditions: 4 nM recombinant human 15-PGDH, 30 μM PGE2, 1 mM NAD+, 60 minutes after starting the reaction; read-out: IC50 Value
Method: 15-PGDH Enzyme Inhibition Test
A test compound and 4 nM recombinant human 15-PGDH (R&D Systems) were added, in 50 mM Tris-HCl (pH 8.0) containing 0.01% TWEEN 20 (Sigma) and 0.01% bovine gamma globulin (Sigma), to a 384-well Flat Bottom Black plate (Corning, 3820), and the resultant was allowed to stand still at room temperature for 12 minutes, and 30 μM PGE2 (Cayman Chemical) and 1 mM NAD+ (Sigma) were added thereto to start the reaction. 60 minutes after starting the reaction, measurement was performed using Synergy 2 (BioTeck) at an excitation wavelength of 340 nm and a fluorescence wavelength of 440 nm. Assuming that a fluorescence signal obtained with an assay buffer added instead of the test compound and NAD+ was 100% and that a signal obtained with NAD+ added was 0%, a concentration corresponding to 50% inhibition plotted on a concentration-reaction curve of the test compound was defined as an IC50 value. Incidentally, in the following tables, an IC50 value smaller than 10 nM was shown as +++, an IC50 value equal to or larger than 10 nM and smaller than 100 nM was shown as ++, and an IC50 value equal to or larger than 100 nM was shown as +.

In the case of `CN1Cc2cc(N3CCOc4cc(C(=O)C5CCC(F)(F)CC5)cnc43)ccc2C1=O` [Example 1-133], the IC50 is reported as < 10 nM.

For `CN1Cc2cc(N3CCOc4cc(C(=O)C5CCCCC5)cnc43)ccc2C1=O` [Example 1-134], the IC50 was < 10 nM.

Work on `Cn1nc2cc(N3CCCc4cc(SC5CCCCC5)cnc43)ccn2c1=O` [Example 1-135] yielded an IC50 of 10 to 100 nM.

`CN1Cc2cc(N3CCOc4cc(SC5CCCCC5)cnc43)ccc2C1=O` [Example 1-136] was tested, and the IC50 was 10 to 100 nM.

In the case of `COC(=O)c1ccccc1N1CCOc2cc(C(=O)N3CCCCC3)ccc21` [Example 1-137], the IC50 is reported as > 100 nM.

`COC(=O)c1ccccc1N1CCc2cc(C(=O)N3CCCCC3)ccc21` [Example 1-138] was tested, and the IC50 was > 100 nM.

For `COC(=O)c1cccc(N2CCc3cc(C(=O)N4CCCCC4)ccc32)c1` [Example 1-139], the IC50 was < 10 nM.

`COC(=O)c1ccc(N2CCc3cc(C(=O)N4CCCCC4)ccc32)cc1` [Example 1-140] was tested, and the IC50 was < 10 nM.

`Cn1nc2cc(N3CCc4cc(C(=O)N5CCCCC5)ccc43)ccn2c1=O` [Example 1-141] was tested, and the IC50 was < 10 nM.

For `O=C(c1cnc2c(c1)CCCN2c1ccn2c(=O)[nH]nc2c1)N1CCC[C@H](CF)C1` [Example 1-145], the IC50 was < 10 nM.

For `O=C(c1cnc2c(c1)CCCN2c1ccn2c(=O)[nH]nc2c1)N1CCC[C@@H](CF)C1` [Example 1-146], the IC50 was < 10 nM.

In the case of `Cn1nc2cc(N3CCOc4cc(C(=O)N5CCC(F)(F)CC5)ccc43)ccn2c1=O` [Example 1-147], the IC50 is reported as < 10 nM.

With `O=C(c1ccc2c(c1)OCCN2c1ccn2c(=O)[nH]nc2c1)N1CCC(F)(F)CC1` [Example 1-148] the IC50 was < 10 nM.

With `CN1Cc2cc(N3CCOc4cc(C(=O)N5CCC(F)(F)CC5)ccc43)ccc2C1=O` [Example 1-149] the IC50 was < 10 nM.

In the case of `COc1ccc(CN2Cc3cc(N4CCOc5cc(C(=O)N6CCC(F)(F)CC6)ccc54)ccc3C2=O)c(OC)c1` [Example 1-150], the IC50 is reported as < 10 nM.

`CN1Cc2cc(N3CCOc4cc(C(=O)N5CCC(F)(F)CC5)ccc43)ncc2C1=O` [Example 1-151] was tested, and the IC50 was < 10 nM.

In the case of `O=C(c1ccc2c(c1)OCCN2c1ccc2c(=O)[nH]cnc2c1)N1CCC(F)(F)CC1` [Example 1-152], the IC50 is reported as < 10 nM.

In the case of `Cn1cnc2cc(N3CCOc4cc(C(=O)N5CCC(F)(F)CC5)ccc43)ccc2c1=O` [Example 1-153], the IC50 is reported as < 10 nM.

With `COCn1nc2cc(N3CCOc4cc(C(=O)N5CCC(F)(F)CC5)ccc43)ccn2c1=O` [Example 1-154] the IC50 was < 10 nM.

For `O=C(c1cnc2c(c1)CCCN2c1ccc2c(=O)[nH]cnc2c1)N1CCCCC1` [Example 1-155], the IC50 was < 10 nM.

In the case of `N#Cc1ccc(N2CCOc3cc(C(=O)N4CCCCC4)ccc32)cc1` [Example 1-157], the IC50 is reported as < 10 nM.

With `CS(=O)(=O)NCc1ccc(N2CCOc3cc(C(=O)N4CCCCC4)ccc32)cc1` [Example 1-160] the IC50 was < 10 nM.

With `CS(=O)(=O)CCc1ccc(N2CCOc3cc(C(=O)N4CCCCC4)ccc32)cc1` [Example 1-161] the IC50 was < 10 nM.

`CS(=O)(=O)Cc1ccc(N2CCOc3cc(C(=O)N4CCCCC4)ccc32)cc1` [Example 1-162] was tested, and the IC50 was < 10 nM.

With `Cn1cnc2cc(N3CCOc4cc(C(=O)N5CCCCC5)cnc43)ccc2c1=O` [Example 1-163] the IC50 was < 10 nM.

Work on `CN1C(=O)c2cc(N3CCOc4cc(C(=O)N5CCCCC5)cnc43)ccc2S1(=O)=O` [Example 1-164] yielded an IC50 of 10 to 100 nM.

In the case of `CN1C(=O)c2ccc(N3CCOc4cc(C(=O)N5CCCCC5)cnc43)cc2S1(=O)=O` [Example 1-165], the IC50 is reported as < 10 nM.

`CN1C(=O)c2ccc(N3CCOc4cc(C(=O)N5CCCCC5)cnc43)cc2C1=O` [Example 1-166] was tested, and the IC50 was < 10 nM.

Molecule `O=C(c1cnc2c(c1)OCCN2c1ccc2c(c1)C(C1CC1)=NS2(=O)=O)N1CCCCC1` [Example 1-167] has an IC50 of 10 to 100 nM.

`O=C(c1cnc2c(c1)CCCN2c1cc2c(cn1)C(=O)N(CC1COC1)C2)N1CCCCC1` [Example 1-168] gave an IC50 of 10 to 100 nM.

With `CCN1Cc2cc(N3CCCc4cc(C(=O)N5CCCCC5)cnc43)ccc2C1=O` [Example 1-169] the IC50 was < 10 nM.

With `O=C(c1cnc2c(c1)CCCN2c1ccn2c(=O)[nH]nc2c1)N1CCCCC1` [Example 1-171] the IC50 was < 10 nM.

`COCN1Cc2cc(N3CCCc4cc(C(=O)N5CCCCC5)cnc43)ccc2C1=O` [Example 1-172] was tested, and the IC50 was < 10 nM.

For `O=C(c1cnc2c(c1)CCCN2c1ccc2c(=O)[nH]ccc2c1)N1CCCCC1` [Example 1-173], the IC50 was < 10 nM.

With `Cn1ccc2cc(N3CCCc4cc(C(=O)N5CCCCC5)cnc43)ccc2c1=O` [Example 1-174] the IC50 was < 10 nM.

`CNC(=O)c1ccc(N2CCCc3cc(C(=O)N4CCC(F)(F)CC4)cnc32)cc1F` [Example 1-175] was tested, and the IC50 was < 10 nM.

In the case of `COCCNC(=O)c1ccc(N2CCCc3cc(C(=O)N4CCC(F)(F)CC4)cnc32)cc1F` [Example 1-176], the IC50 is reported as < 10 nM.

With `O=C(c1cnc2c(c1)CCCN2c1ccc2c(c1)CN(CC1COC1)C2=O)N1CCC(F)(F)CC1` [Example 1-177] the IC50 was < 10 nM.

`O=C(c1cnc2c(c1)CCCN2c1ccc2c(c1)CN(C1COC1)C2=O)N1CCC(F)(F)CC1` [Example 1-178] was tested, and the IC50 was < 10 nM.

For `CNC(=O)c1ncc(N2CCCc3cc(C(=O)N4CCC(F)(F)CC4)cnc32)cc1F` [Example 1-180], the IC50 was < 10 nM.

For `O=C(c1cnc2c(c1)CCCN2c1ccc2c(=O)[nH]ccc2c1)N1CCC(F)(F)CC1` [Example 1-181], the IC50 was < 10 nM.

For `Cn1ccc2cc(N3CCCc4cc(C(=O)N5CCC(F)(F)CC5)cnc43)ccc2c1=O` [Example 1-182], the IC50 was < 10 nM.

`O=C(c1cnc2c(c1)CCCN2c1cc2c(cn1)C(=O)N(C1COC1)C2)N1CCC(F)(F)CC1` [Example 1-183] gave an IC50 of 10 to 100 nM.

`O=C(c1cnc2c(c1)CCCN2c1ccn2c(=O)[nH]nc2c1)N1CCC(F)(F)CC1` [Example 1-184] was tested, and the IC50 was < 10 nM.

With `CCOCCN1Cc2cc(N3CCCc4cc(C(=O)N5CCC(F)(F)CC5)cnc43)ncc2C1=O` [Example 1-185] the IC50 was 10 to 100 nM.

With `O=C(c1cnc2c(c1)CCCN2c1cc2c(cn1)C(=O)N(CC1COC1)C2)N1CCC(F)(F)CC1` [Example 1-186] the IC50 was 10 to 100 nM.

With `Cn1ncc2cc(N3CCCc4cc(C(=O)N5CCCCC5)cnc43)ccc2c1=O` [Example 1-188] the IC50 was < 10 nM.

In the case of `Cn1ncc2cc(N3CCCc4cc(C(=O)N5CCC(F)(F)CC5)cnc43)ccc2c1=O` [Example 1-189], the IC50 is reported as < 10 nM.

With `Cn1cnc2cc(N3CCCc4cc(C(=O)N5CCCCC5)cnc43)cnc2c1=O` [Example 1-190] the IC50 was < 10 nM.

In the case of `Cn1cnc2cc(N3CCCc4cc(C(=O)N5CCC(F)(F)CC5)cnc43)cnc2c1=O` [Example 1-191], the IC50 is reported as < 10 nM.

With `O=C(c1cnc2c(c1)CCCN2c1cnc2c(=O)[nH]cnc2c1)N1CCC(F)(F)CC1` [Example 1-192] the IC50 was < 10 nM.

With `Cn1ncc2cc(N3CCCc4cc(C(=O)N5CCCCC5)cnc43)cnc2c1=O` [Example 1-194] the IC50 was < 10 nM.

`O=C(c1cnc2c(c1)CCCN2c1cnc2c(=O)[nH]ncc2c1)N1CCCCC1` [Example 1-195] was tested, and the IC50 was < 10 nM.

`CCCN1Cc2cc(N3CCCc4cc(C(=O)N5CCCCC5)cnc43)ccc2C1=O` [Example 1-196] was tested, and the IC50 was < 10 nM.

In the case of `CCCCN1Cc2cc(N3CCCc4cc(C(=O)N5CCCCC5)cnc43)ccc2C1=O` [Example 1-197], the IC50 is reported as < 10 nM.

For `O=C(c1cnc2c(c1)CCCN2c1ccc2c(c1)CN(C1CC1)C2=O)N1CCCCC1` [Example 1-198], the IC50 was < 10 nM.

`O=C(c1cnc2c(c1)CCCN2c1ccccc1)N1CCCCC1` [Example 1-199] showed an IC50 of 10 to 100 nM.

`COc1ccc(N2CCCc3cc(C(=O)N4CCCCC4)cnc32)cc1` [Example 1-200] was tested, and the IC50 was 10 to 100 nM.

In the case of `Cn1nnc(-c2ccc(N3CCCc4cc(C(=O)N5CCCCC5)cnc43)cc2)n1` [Example 1-201], the IC50 is reported as < 10 nM.

For `CCCn1nc2cc(N3CCCc4cc(C(=O)N5CCCCC5)cnc43)ccn2c1=O` [Example 1-202], the IC50 was < 10 nM.

`CCCCn1nc2cc(N3CCCc4cc(C(=O)N5CCCCC5)cnc43)ccn2c1=O` [Example 1-203] was tested, and the IC50 was < 10 nM.

For `CNC(=O)c1ccc(N2CCCc3cc(C(=O)N4CCCCC4)cnc32)cc1` [Example 1-204], the IC50 was < 10 nM.

`COC(=O)c1ccc(N2CCCc3cc(C(=O)N4CCCCC4)cnc32)cc1` [Example 1-205] was tested, and the IC50 was < 10 nM.

Molecule `CNC(=O)c1ccc(N2CCCc3cc(C(=O)N4CCCCC4)cnc32)cc1C` [Example 1-207] has an IC50 of 10 to 100 nM.

For `N#Cc1ccc(N2CCCc3cc(C(=O)N4CCCCC4)cnc32)cc1` [Example 1-209], the IC50 was < 10 nM.

For `CNC(=O)c1ccc(N2CCCc3cc(C(=O)N4CCCCC4)cnc32)cn1` [Example 1-210], the IC50 was < 10 nM.

With `O=C(c1cnc2c(c1)CCCN2c1ccc(Cl)cc1)N1CCCCC1` [Example 1-211] the IC50 was 10 to 100 nM.

`O=C(O)c1ccccc1N1CCCc2cc(C(=O)N3CCCCC3)cnc21` [Example 1-212] gave an IC50 of 10 to 100 nM.

`O=C(c1cnc2c(c1)CCCN2c1ccc2c(c1)CN(C1CC1)C2=O)N1CCC(F)(F)CC1` [Example 1-213] was tested, and the IC50 was < 10 nM.

`O=C(c1cnc2c(c1)CCCN2c1ccc(F)cc1)N1CCCCC1` [Example 1-214] was tested, and the IC50 was 10 to 100 nM.

In the case of `CCCn1nc2cc(N3CCOc4cc(C(=O)N5CCCCC5)cnc43)ccn2c1=O` [Example 1-215], the IC50 is reported as < 10 nM.
